{"source": "patent US11203600B2", "about": "(Denali Therapeutics Inc., priority 2017, dated 2021)", "target": "GST-hRIPK1 (8-327) (Homo sapiens (Human), UniProt Q13546)", "sequence (Q13546 8-327)": "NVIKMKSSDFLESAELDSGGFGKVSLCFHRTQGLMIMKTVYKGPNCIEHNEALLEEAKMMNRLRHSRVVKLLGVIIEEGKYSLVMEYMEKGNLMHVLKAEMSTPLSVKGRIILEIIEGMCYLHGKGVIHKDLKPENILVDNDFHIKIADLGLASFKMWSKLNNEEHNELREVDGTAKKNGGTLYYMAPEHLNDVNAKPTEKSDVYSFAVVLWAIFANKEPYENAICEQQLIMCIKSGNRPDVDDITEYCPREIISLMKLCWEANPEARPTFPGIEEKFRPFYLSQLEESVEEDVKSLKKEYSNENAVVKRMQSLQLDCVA", "experiment": "Fluorescent Polarization Binding (FP Binding) assay, RIPK1", "conditions": "mean of at least two independent experiments", "method_in_brief": "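Binding by fluorescence polarisation at RT: 10 nM baculovirus-expressed GST-hRIPK1 (8-327) and 5 nM fluorescent ligand, 30 min, in 50 mM HEPES pH 7.5, 50 mM MgCl2, 0.02% CHAPS, 1% DMSO. FP read at ex 531/em 595 nm. IC50 from normalised percent inhibition, mean of ≥2 experiments.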", "key": {"[1]": {"conditions": "10 nM GST-hRIPK1 (8-327), 5 nM fluorescent-labeled ligand, RT, 30 min"}}, "data": [{"compound": "COc1nc(N2CCC(OC)(C(=O)N3CCOc4c(C#N)cncc4C3)CC2)ncc1F", "note": "[Example 194, 4-[1-(5-fluoro-4-methoxy-pyrimidin-2-yl)-4-methoxy-piperidine-4-carbonyl]-3,5-dihydro-2H-pyrido[3,4-f][1,4]oxazepine-9-carbonitrile]", "values": [{"measurement": "IC50", "setting": "[1]", "result": "0.1 to 100", "unit": "nM"}]}, {"compound": "COc1nc(N2CCC(OC)(C(=O)N3CCOc4c(C#N)cncc4C3)CC2)nc(C)c1F", "note": "[Example 195, 4-[1-(5-fluoro-4-methoxy-6-methyl-pyrimidin-2-yl)-4-methoxy-piperidine-4-carbonyl]-3,5-dihydro-2H-pyrido[3,4-f][1,4]oxazepine-9-carbonitrile]", "values": [{"measurement": "IC50", "setting": "[1]", "result": "> 1000", "unit": "nM"}]}, {"compound": "COc1nc(N2CCC(F)(C(=O)N3CCOc4c(C#N)cncc4C3)CC2)nc(C)c1F", "note": "[Example 196, 4-[4-fluoro-1-(5-fluoro-4-methoxy-6-methyl-pyrimidin-2-yl)piperidine-4-carbonyl]-3,5-dihydro-2H-pyrido[3,4-f][1,4]oxazepine-9-carbonitrile]", "values": [{"measurement": "IC50", "setting": "[1]", "result": "100 to 1000", "unit": "nM"}]}, {"compound": "COc1nc(N2CCC(F)(C(=O)N3CCOc4c(C#N)cncc4C3)CC2)nc2ccccc12", "note": "[Example 197, 4-[4-fluoro-1-(4-methoxyquinazolin-2-yl)piperidine-4-carbonyl]-3,5-dihydro-2H-pyrido[3,4-f][1,4]oxazepine-9-carbonitrile]", "values": [{"measurement": "IC50", "setting": "[1]", "result": "100 to 1000", "unit": "nM"}]}, {"compound": "N#Cc1cncc2c1OCCN(C(=O)C1(F)CCN(c3cnc4ccccc4n3)CC1)C2", "note": "[Example 198, 4-(4-fluoro-1-quinoxalin-2-yl-piperidine-4-carbonyl)-3,5-dihydro-2H-pyrido[3,4-f][1,4]oxazepine-9-carbonitrile]", "values": [{"measurement": "IC50", "setting": "[1]", "result": "100 to 1000", "unit": "nM"}]}, {"compound": "N#Cc1cncc2c1OCCN(C(=O)C1(F)CCN(c3cc4ccccc4cn3)CC1)C2", "note": "[Example 199, 4-[4-fluoro-1-(3-isoquinolyl)piperidine-4-carbonyl]-3,5-dihydro-2H-pyrido[3,4-f][1,4]oxazepine-9-carbonitrile]", "values": [{"measurement": "IC50", "setting": "[1]", "result": "0.1 to 100", "unit": "nM"}]}, {"compound": "N#Cc1cncc2c1OCCN(C(=O)C1(F)CCN(c3ccc4ccccc4n3)CC1)C2", "note": "[Example 200, 4-[4-fluoro-1-(2-quinolyl)piperidine-4-carbonyl]-3,5-dihydro-2H-pyrido[3,4-f][1,4]oxazepine-9-carbonitrile]", "values": [{"measurement": "IC50", "setting": "GST-hRIPK1 (8-327)", "result": "0.1 to 100", "unit": "nM"}]}, {"compound": "N#Cc1cncc2c1OCCN(C(=O)C1(F)CCN(c3ncc(F)c(C4CC4)n3)CC1)C2", "note": "[Example 201, 4-[1-(4-cyclopropyl-5-fluoro-pyrimidin-2-yl)-4-fluoro-piperidine-4-carbonyl]-3,5-dihydro-2H-pyrido[3,4-f][1,4]oxazepine-9-carbonitrile]", "values": [{"measurement": "IC50", "setting": "GST-hRIPK1 (8-327)", "result": "0.1 to 100", "unit": "nM"}]}, {"compound": "N#Cc1cncc2c1OCCN(C(=O)C1(F)CCN(c3nc(Cl)ncc3F)CC1)C2", "note": "[Example 202, 4-[1-(2-chloro-5-fluoro-pyrimidin-4-yl)-4-fluoro-piperidine-4-carbonyl]-3,5-dihydro-2H-pyrido[3,4-f][1,4]oxazepine-9-carbonitrile]", "values": [{"measurement": "IC50", "setting": "GST-hRIPK1 (8-327)", "result": "0.1 to 100", "unit": "nM"}]}, {"compound": "O=C(C1CCN(c2ncc(F)cn2)CC1)N1CCCc2ccccc2C1", "note": "[Example 203, [1-(5-fluoropyrimidin-2-yl)-4-piperidyl]-(1,3,4,5-tetrahydro-2-benzazepin-2-yl)methanone]", "values": [{"measurement": "IC50", "setting": "GST-hRIPK1 (8-327)", "result": "100 to 1000", "unit": "nM"}]}, {"compound": "N#Cc1cncc2c1OCCN(C(=O)C1CCN(c3ccnc4ccnn34)CC1)C2", "note": "[Example 205, 4-(1-pyrazolo[1,5-a]pyrimidin-7-ylpiperidine-4-carbonyl)-3,5-dihydro-2H-pyrido[3,4-f][1,4]oxazepine-9-carbonitrile]", "values": [{"measurement": "IC50", "setting": "GST-hRIPK1 (8-327)", "result": "100 to 1000", "unit": "nM"}]}, {"compound": "N#Cc1cncc2c1OCCN(C(=O)C1(F)CCN(c3nccn4ncnc34)CC1)C2", "note": "[Example 206, 4-[4-fluoro-1-([1,2,4]triazolo[1,5-a]pyrazin-8-yl)piperidine-4-carbonyl]-3,5-dihydro-2H-pyrido[3,4-f][1,4]oxazepine-9-carbonitrile]", "values": [{"measurement": "IC50", "setting": "GST-hRIPK1 (8-327)", "result": "0.1 to 100", "unit": "nM"}]}, {"compound": "CCC(C)(C)C(=O)N1CCOc2c(F)cncc2C1", "note": "[Example 207, 1-(9-fluoro-3,5-dihydro-2H-pyrido[3,4-f][1,4]oxazepin-4-yl)-2,2-dimethyl-butan-1-one]", "values": [{"measurement": "IC50", "setting": "GST-hRIPK1 (8-327)", "result": "100 to 1000", "unit": "nM"}]}, {"compound": "N#Cc1cncc2c1OCCN(C(=O)C1(O)CCN(c3ncc(F)cn3)CC1F)C2", "note": "(stereo not drawn) [Example 208, 4-[3-fluoro-1-(5-fluoropyrimidin-2-yl)-4-hydroxy-piperidine-4-carbonyl]-3,5-dihydro-2H-pyrido[3,4-f][1,4]oxazepine-9-carbonitrile]", "values": [{"measurement": "IC50", "setting": "GST-hRIPK1 (8-327)", "result": "100 to 1000", "unit": "nM"}]}, {"compound": "COC1(C(=O)N2CCOc3c(F)cncc3C2)CCN(c2ncnc(OCC(F)F)n2)CC1", "note": "[Example 209, [1-[4-(2,2-difluoroethoxy)-1,3,5-triazin-2-yl]-4-methoxy-4-piperidyl]-(9-fluoro-3,5-dihydro-2H-pyrido[3,4-f][1,4]oxazepin-4-yl)methanone]", "values": [{"measurement": "IC50", "setting": "GST-hRIPK1 (8-327)", "result": "100 to 1000", "unit": "nM"}]}, {"compound": "O=C(C1CCN(c2ncnc(OCC(F)F)n2)CC1)N1CCOc2c(F)cncc2C1", "note": "[Example 210, [1-[4-(2,2-difluoroethoxy)-1,3,5-triazin-2-yl]-4-piperidyl]-(9-fluoro-3,5-dihydro-2H-pyrido[3,4-f][1,4]oxazepin-4-yl)methanone]", "values": [{"measurement": "IC50", "setting": "GST-hRIPK1 (8-327)", "result": "100 to 1000", "unit": "nM"}]}, {"compound": "N#Cc1cncc2c1OCCN(C(=O)C1CCN(c3ncc(F)cn3)CC1O)C2", "note": "(stereo not drawn) [Example 211, 4-[1-(5-fluoropyrimidin-2-yl)-3-hydroxy-piperidine-4-carbonyl]-3,5-dihydro-2H-pyrido[3,4-f][1,4]oxazepine-9-carbonitrile]", "values": [{"measurement": "IC50", "setting": "GST-hRIPK1 (8-327)", "result": "100 to 1000", "unit": "nM"}]}, {"compound": "N#Cc1cncc2c1OCCN(C(=O)C1(F)CCN(c3ccnc4ncnn34)CC1)C2", "note": "[Example 212, 4-[4-fluoro-1-([1,2,4]triazolo[1,5-a]pyrimidin-7-yl)piperidine-4-carbonyl]-3,5-dihydro-2H-pyrido[3,4-f][1,4]oxazepine-9-carbonitrile]", "values": [{"measurement": "IC50", "setting": "GST-hRIPK1 (8-327)", "result": "100 to 1000", "unit": "nM"}]}, {"compound": "CC1(C(=O)N2CCOc3c(C#N)cncc3C2)CCN(c2ncc(Cl)cn2)CC1(F)F", "note": "(stereo not drawn) [Example 215, 4-(1-(5-chloropyrimidin-2-yl)-3,3-difluoro-4-methylpiperidine-4-carbonyl)-2,3,4,5-tetrahydropyrido[3,4-f][1,4]oxazepine-9-carbonitrile]", "values": [{"measurement": "IC50", "setting": "GST-hRIPK1 (8-327)", "result": "0.1 to 100", "unit": "nM"}]}, {"compound": "CC1(C(=O)N2CCOc3c(C#N)cncc3C2)CCN(c2ncc(F)c(=O)[nH]2)CC1(F)F", "note": "(stereo not drawn) [Example 216, 4-[3,3-difluoro-1-(5-fluoro-6-oxo-1H-pyrimidin-2-yl)-4-methyl-piperidine-4-carbonyl]-3,5-dihydro-2H-pyrido[3,4-f][1,4]oxazepine-9-carbonitrile]", "values": [{"measurement": "IC50", "setting": "GST-hRIPK1 (8-327)", "result": "100 to 1000", "unit": "nM"}]}, {"compound": "COCCOc1nc(N2CCC(C)(C(=O)N3CCOc4c(C#N)cncc4C3)C(F)(F)C2)ncc1F", "note": "(stereo not drawn) [Example 217, 4-[3,3-difluoro-1-[5-fluoro-4-(2-methoxyethoxy)pyrimidin-2-yl]-4-methyl-piperidine-4-carbonyl]-3,5-dihydro-2H-pyrido[3,4-f][1,4]oxazepine-9-carbonitrile]", "values": [{"measurement": "IC50", "setting": "GST-hRIPK1 (8-327)", "result": "0.1 to 100", "unit": "nM"}]}, {"compound": "N#Cc1cncc2c1OCCN(C(=O)C1CCN(c3ncnn4ccnc34)CC1(F)F)C2", "note": "(stereo not drawn) [Example 218, 4-(3,3-difluoro-1-imidazo[2,1-f][1,2,41triazin-4-yl-piperidine-4-carbonyl)-3,5-dihydro-2H-pyrido[3,4-f][1,4]oxazepine-9-carbonitrile)]", "values": [{"measurement": "IC50", "setting": "GST-hRIPK1 (8-327)", "result": "100 to 1000", "unit": "nM"}]}, {"compound": "N#Cc1cncc2c1OCCN(C(=O)C1CCN(c3nccn4ncnc34)CC1(F)F)C2", "note": "(stereo not drawn) [Example 219, 4-[3,3-difluoro-1-([1,2,4]triazolo[1,5-a]pyrazin-8-yl)piperidine-4-carbonyl]-3,5-dihydro-2H-pyrido[3,4-f][1,4]oxazepine-9-carbonitrile]", "values": [{"measurement": "IC50", "setting": "GST-hRIPK1 (8-327)", "result": "100 to 1000", "unit": "nM"}]}, {"compound": "N#Cc1cncc2c1OCCN(C(=O)C1CCN(c3ncnc4ccnn34)CC1(F)F)C2", "note": "(stereo not drawn) [Example 220]", "values": [{"measurement": "IC50", "setting": "GST-hRIPK1 (8-327)", "result": "100 to 1000", "unit": "nM"}]}]}
